In patent US5736556A, “Tropane-2-aldoxime derivatives as nevro transmitter reuptake inhibitors” (NeuroSearch A/S, priority 1994, dated 1998):
Structures can show the parent of a compound that is named as a salt.

Tests used:
[1] = biological target: T1, ^3 H-5-HT (serotonin) uptake (serotonin transporter) (Rattus norvegicus, UniProt P31652); test: In vitro inhibition of ^3 H-5-hydroxytryptamine (^3 H-5-HT, serotonin) uptake in cortical synaptosomes; type: biochemical, rat (male Wistar); details: ^3 H-5-HT 1 nM, 30 min at 37° C.
T1 construct: Cerebral cortices from male Wistar rats (150-200 g) are homogenized; from tissue; host or cells: P2 synaptosomes of cerebral cortex, male Wistar rats
T1 sequence (P31652 whole entry): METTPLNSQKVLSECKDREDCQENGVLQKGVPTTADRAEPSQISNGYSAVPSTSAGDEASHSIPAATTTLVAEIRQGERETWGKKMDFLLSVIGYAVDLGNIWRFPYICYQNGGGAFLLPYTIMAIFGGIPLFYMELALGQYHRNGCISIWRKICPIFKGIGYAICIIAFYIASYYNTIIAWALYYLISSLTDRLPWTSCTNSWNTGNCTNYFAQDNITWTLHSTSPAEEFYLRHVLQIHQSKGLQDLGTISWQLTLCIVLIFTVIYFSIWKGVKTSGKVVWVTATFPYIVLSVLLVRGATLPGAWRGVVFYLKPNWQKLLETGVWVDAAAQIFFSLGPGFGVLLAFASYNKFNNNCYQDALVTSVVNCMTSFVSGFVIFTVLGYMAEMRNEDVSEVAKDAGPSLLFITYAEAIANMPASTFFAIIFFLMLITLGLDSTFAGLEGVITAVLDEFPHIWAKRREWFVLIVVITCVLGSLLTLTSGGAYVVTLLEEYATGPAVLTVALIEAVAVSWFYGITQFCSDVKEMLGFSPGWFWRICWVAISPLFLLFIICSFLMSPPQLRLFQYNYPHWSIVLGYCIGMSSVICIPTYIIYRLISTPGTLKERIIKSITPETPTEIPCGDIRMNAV
From the text: (§1) The compounds of the invention have also been tested for their ability to inhibit reuptake of dopamine(DA) noradrenalin(NA) and serotonin(5-HT) in synaptosomes.
(§2) Specific neurotransmitter transporters/uptake sites on nerve terminals presumably function to terminate neuronal signaling by removing the neurotransmitters dopamine, noradrenaline and serotonin, respectively, from the synaptic cleft. The activity of the transporter integral proteins can be measured in vitro by synaptosomal uptake of ^3 H-dopamine, ^3 H-noradrenaline and ^3 H-serotonine, respectively.
In vitro inhibition of ^3 H-5-hydroxytryptamine ^3 H-5-HT, serotonin) uptake in cortical synaptosomes
Tissue preparation: Preparations are performed at 0°-4° C. unless otherwise indicated. Cerebral cortices from male Wistar rats (150-200 g) are homogenized for 5-10 sec in 100 volumes of ice-cold 0.32M sucrose containing 1 mM pargyline using an Ultra-Turrax homogenizer. […]
(§3) Assay: Aliquots of 4.0 ml tissue suspension are added to 100 μl of test solution and 100 μl of ^3 H-5-HT (1 nM, final concentration), mixed and incubated for 30 min at 37° C. Non-specific uptake is determined using citalopram (1 μM, final concentration). […] The amount of radioactivity on the filters is determined by conventional liquid scintillation counting. Specific uptake is calculated as the difference between total uptake and non-specific uptake. […]

[2] = biological target: T2, ^3 H-noradrenaline uptake (noradrenaline transporter) (Rattus norvegicus, UniProt Q63380); test: In vitro inhibition of ^3 H-noradrenaline (^3 H-NA) uptake in hippocampal synaptosomes; type: biochemical, rat (male Wistar); details: ^3 H-NA 1 nM, 90 min at 37° C.
T2 construct: Hippocampi from male Wistar rats (150-200 g) are homogenized; from tissue; host or cells: P2 synaptosomes of hippocampus, male Wistar rats
T2 sequence (Q63380 1-617): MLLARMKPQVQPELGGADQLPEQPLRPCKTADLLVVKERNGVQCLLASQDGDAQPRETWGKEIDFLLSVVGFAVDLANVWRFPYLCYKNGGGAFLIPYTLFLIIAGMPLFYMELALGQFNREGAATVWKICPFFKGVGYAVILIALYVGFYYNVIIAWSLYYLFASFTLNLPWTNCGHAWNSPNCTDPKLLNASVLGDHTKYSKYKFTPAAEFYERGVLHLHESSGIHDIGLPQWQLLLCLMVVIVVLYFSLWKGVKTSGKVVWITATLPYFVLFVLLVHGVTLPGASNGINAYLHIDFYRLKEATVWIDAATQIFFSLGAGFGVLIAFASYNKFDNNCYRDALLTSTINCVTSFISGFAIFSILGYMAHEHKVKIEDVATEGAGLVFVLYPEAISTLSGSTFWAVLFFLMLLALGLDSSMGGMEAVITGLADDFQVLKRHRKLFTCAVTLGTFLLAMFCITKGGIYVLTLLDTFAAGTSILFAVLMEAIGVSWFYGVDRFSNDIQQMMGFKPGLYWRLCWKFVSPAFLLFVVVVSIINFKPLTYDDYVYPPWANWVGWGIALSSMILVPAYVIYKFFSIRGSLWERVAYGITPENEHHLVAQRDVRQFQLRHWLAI
From the text: as §1, §2
In vitro inhibition of ^3 H-noradrenaline (^3 H-NA) uptake in hippocampal synaptosomes
Tissue preparation: Preparations are performed at 0°-4° C. unless otherwise indicated. Hippocampi from male Wistar rats (150-200 g) are homogenized for 5-10 sec in 100 volumes of ice-cold 0.32M sucrose containing 1 mM pargyline using an Ultra-Turrax homogenizer. Monoamine oxidase activity will be inhibited in the presence of pargyline. The homogenate is centrifuged at 1000×g for 10 min. The resulting supernatant is then centrifuged at 27,000×g for 50 min and the supernatant is discarded. The pellet (P2) is resuspended in oxygenated (equilibrated with an atmosphere of 96% O2 : 4% CO2 for at least 30 min) Krebs-Ringer incubation buffer (2000 ml per g of original tissue) at pH 7.2 containing 122 mM NaCl, 0.16 mM EDTA, 4.8 mM KCl, 12.7 mM Na2 HPO4, 3.0 mM NaH2 PO4, 1.2 mM MgSO4, 0.97 mM CaCl2, 10 mM glucose and 1 mM ascorbic acid.
as §3, with “H-NA” for “H-5-HT”, “90” for “30”, “desipramine” for “citalopram”, “concentration). After incubation the samples are poured directly onto Whatman GF/C glass fibre filters under suction.” for “concentration).”

## CON=C[C@@H]1[C@@H](c2ccc(Cl)c(Cl)c2)C[C@@H]2CC[C@H]1N2C [(1R,2R,3S)-3-(3,4-dichlorophenyl)-tropane-2-O-methyl-aldoxime, H2 SO4]
[1]
  IC50: 13 nM
[2]
  IC50: 1.3 nM

## CON=C[C@@H]1[C@@H](c2ccc(Cl)c(Cl)c2)C[C@@H]2CC[C@H]1N2 [(1R,2R,3S)-N-Normethyl-3-(3,4-dichlorophenyl)tropane-2-O-methyl-aldoxime, hydrochloride]
[1]
  IC50: 1.7 nM
[2]
  IC50: 1.3 nM
